# Molecular target: T1, human MCH-1R (Homo sapiens, UniProt Q99705)
# T1 construct: expressed in transfected cells; host or cells: CHO-K1 (American Type Culture Collection), membrane samples
# Assay: MCH binding inhibition test
# Details: membranes of MCH-1R expressing CHO-K1 cells, 50 pM [125I]MCH, 25° C., 1 hour, pH 7.4; read-out: IC50 (50% inhibition concentration of test compound to the specific [125I]MCH binding)
# Experimental: A human MCH-1R encoding cDNA sequence [FEBS Letters, Vol. 398, 253 (1996); Biochimica et Biophisica Acta, Vol. 1401, 216 (1998)] was cloned to plasmid vector pEF/myc/cyto (Invitrogen Corporation). The obtained expression vector was transfected to a host cell CHO-K1 (American Type Culture Collection) using Lipofectamine Plus Reagent (Life Technology Inc.) to provide MCH-1R expression cells.
# Membrane samples prepared from the MCH-1R expression cells were incubated with each test compound and 50 pM of [^125I]MCH (NEN Co.), in an assay buffer (50 mM Tris buffer comprising 10 mM magnesium chloride, 2 mM ethylenediamine tetraacetate, 0.01% bacitracin and 0.2% bovine serum albumin; pH 7.4) at 25° C. for an hour, followed by filtration through Glass Filter GF/C (Wattman Co.). After washing the glass filter with 50 mM Tris buffer (pH 7.4) comprising 10 mM magnesium chloride, 2 mM ethylenediamine tetraacetate and 0.04% Tween-20, the radioactive activity on the glass filter was measured. The non-specific binding was measured in the presence of 1 μM human MCH and 50% inhibition concentration (IC50 value) of each test compound to the specific [^125I]MCH binding was determined.
# T1 sequence (Q99705 whole entry): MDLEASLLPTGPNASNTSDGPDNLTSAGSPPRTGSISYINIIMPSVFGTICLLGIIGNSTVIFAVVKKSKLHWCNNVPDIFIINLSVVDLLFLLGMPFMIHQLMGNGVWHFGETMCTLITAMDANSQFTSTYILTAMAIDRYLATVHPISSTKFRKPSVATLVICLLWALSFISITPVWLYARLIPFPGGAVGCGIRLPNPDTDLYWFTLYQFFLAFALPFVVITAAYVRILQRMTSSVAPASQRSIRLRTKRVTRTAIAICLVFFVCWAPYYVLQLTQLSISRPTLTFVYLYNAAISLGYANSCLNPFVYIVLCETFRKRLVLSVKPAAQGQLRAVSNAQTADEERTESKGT
row,SMILES,IC50
1,Cc1c(C2CC2)nc2ccc(NC(=O)c3ccc(COc4ccccn4)cc3)cn12 [Example 25],8.4 nM
2,Cc1c(C2CCOC2)nc2ccc(NC(=O)c3ccc(/C(F)=C/c4ccccn4)cc3)cn12 (stereo not drawn) [Example 42],4.8 nM
3,"Cc1c(C(C)C)nc2ccc(NC(=O)c3ccc(CCc4ccccn4)cc3)cn12 [Example 49, N-(2-isopropyl-3-methylimidazo[1,2-a]pyridin-6-yl)-4-(2-pyridin-2-ylethyl)benzamide]",6.2 nM
4,"CCc1nc2ccc(NC(=O)c3ccc(C(F)Cc4ccccn4)cc3)cn2c1C (stereo not drawn) [Example 58, N-(2-ethyl-3-methylimidazo[1,2-a]pyridin-6-yl)-4-(1-fluoro-2-pyridin-2-ylethyl)benzamide]",3.8 nM
5,"Cc1c(C2CCOC2)nc2ccc(NC(=O)c3ccc(SCc4ccccn4)cc3)cn12 (stereo not drawn) [Example 59, N-[3-methyl-2-(tetrahydrofuran-3-yl)imidazo[1,2-a]pyridin-6-yl]-4-(pyridin-2-ylmethylsulfanyl)benzamide]",3.8 nM
6,"Cc1c(C2CC2)nc2ccc(NC(=O)c3ccc(NC(=O)c4ccccn4)cc3)cn12 [Example 61, Pyridine-2-carboxylic acid[4-(2-cyclopropyl-3-methylimidazo[1,2-a]pyridin-6-ylcarbamoyl)phenyl]amide]",4.7 nM
7,"CCc1nc2ccc(NC(=O)c3ccc(Oc4cc(Cl)ccn4)cc3)cn2c1C [Example 67, 4-(4-Chloropyridin-2-yloxy)-N-(2-ethyl-3-methylimidazo[1,2-a]pyridin-6-yl)benzamide]",4.3 nM

# Stronger by IC50, values ahead:
row,IC50,SMILES
1,3.4 nM,"CCc1nc2ccc(NC(=O)c3ccc(OCc4ccccn4)c(F)c3)cn2c1C [Example 9, N-(2-ethyl-3-methylimidazo[1,2-a]pyridin-6-yl)-3-fluoro-4-(pyridin-2-ylmethoxy)benzamide]"
2,2.2 nM,"CCc1nc2ccc(NC(=O)c3ccc(OCc4ccc(F)cn4)c(F)c3)cn2c1C [Example 11, N-(2-ethyl-3-methylimidazo[1,2-a]pyridin-6-yl)-3-fluoro-4-[(5-fluoropyridin-2-yl)methoxy]benzamide]"
3,0.49 nM,Cc1c(CCCN2CCCC2)nc2ccc(NC(=O)c3ccc(OCc4ccccc4)cc3)cn12 [Example 17]
4,1.3 nM,"CCc1nc2ccc(NC(=O)c3ccc(/C=C/c4ccccc4)cc3)cn2c1C [Example 28, N-(2-ethyl-3-methylimidazo[1,2-a]pyridin-6-yl)-4-((E)-2-phenylvinyl)benzamide]"
5,0.47 nM,"Cc1c(CCCN2CCCC2)nc2ccc(NC(=O)c3ccc(/C=C/c4ccccn4)cc3)cn12 [Example 48, N-[3-methyl-2-(3-pyrrolidin-1-ylpropyl)imidazo[1,2-a]pyridin-6-yl]-4-[(E)-2-pyridin-2-ylvinyl]benzamide]"
